For 1 compound, solubility results are on record in patent US9090631B2, “Process for purifying cefotiam hydrochloride” (HAINAN LINGKANG PHARMACEUTICAL CO., LTD., priority 2011, dated 2015).

Each structure is given as a SMILES string. Where a name gives a salt, the structure may show the parent alone.

This series can be described thus: Solubility of cefotiam hydrochloride in recrystallization solvents. The format is physicochemical. The text has this: The solubility of cefotiam hydrochloride is great in water but very small in ethanol, and even smaller in acetone. A mixture of water and ethanol or a mixture of water and acetone is used as the solvent to recrystallize cefotiam hydrochloride.

Take `CN(C)CCn1nnnc1SCC1=C(C(=O)O)N2C(=O)[C@@H](NC(=O)Cc3csc(N)n3)[C@H]2SC1` [cefotiam hydrochloride, (6R,7R)-7-[[(2-amino-4-thiazolyl)acetyl]amino]-3-[[1-[2-(dimethylamino)ethyl]-1H-tetrazol-5-yl]thiomethyl]-8-oxo-5-thia-1-azabicyclo[4,2,0]oct-2-ene-2-carboxylic acid dihydrochloride]: the solubility entry runs as follows: (in ethanol) “very small”; (in water) “great”.
